According to US8236750B2, “Composition comprising a pulmonary surfactant and a TNF-derived peptide” (Nycomed GmbH, priority 2004, dated 2012):

Test system: Male Wistar rats
Assay: Arterial blood oxygenation after repeated saline lung lavage in rats
Format: in vivo, rat
Conditions: TIP 500 μg/animal alone, intratracheally, 1.2 mL in NaCl 0.9%; lung-lavaged rats; up to 150 min after administration
Protocol: Male Wistar rats were prepared as disclosed in Example 5. NaCl 0.9% (open circles), LUSUPULTIDE 12.5 mgPL/kg (filled squares), the circularized peptide […] (SEQ ID NO:3) (=TIP) 500 μg/animal (stars), or LUSUPULTIDE 12.5 mgPL/kg in combination with TIP 500 μg/animal (open squares) was administered intratracheally (administration volume 1.2 mL, solvent NaCl 0.9%). Arterial blood oxygenation (PaO2) was determined every 30 min up to 150 min after drug administration (t=210 min). […] Data are shown as mean ±SEM.*p<0.05, **p<0.01 versus LUSUPULTIDE 12.5 mgPL/kg
Male Wistar rats (230-280 g) were anaesthetized, catheterized to withdraw arterial blood, and ventilated with pure oxygen (=>PaO2˜500-550 mmHg). 30 min later lungs were ravaged 5-9 times with NaCl 0.9% (=>PaO2˜50-100 mmHg). After 60 min NaCl 0.9%, LUSUPULTIDE 12.5 mgPL/kg, TIP (500 μg/animal), or LUSUPULTIDE (12.5 mgPL/kg) in combination with TIP (500 μg/animal) was administered intratracheally (administration volume 1.2 mL, solvent NaCl 0.9%). Arterial blood oxygenation (PaO2) was determined every 30 min up to 150 min after drug administration (t=210 min).

With CGQRETPEGAEAKPWYC [TIP] the “Influence on arterial blood oxygenation (PaO2)” value was “no influence on oxygenation”.
